This note sets out measurements from PMC5813964, “The enzymatic processing of α-dystroglycan by MMP-2 is controlled by two anchoring sites distinct from the active site” (PLoS ONE, 2018).

The target of assay [1] is T1, whole MMP-2 (Homo sapiens, UniProt P08253).
T1 construct: purchased R&D System, London, UK
T1 sequence (P08253 110-660): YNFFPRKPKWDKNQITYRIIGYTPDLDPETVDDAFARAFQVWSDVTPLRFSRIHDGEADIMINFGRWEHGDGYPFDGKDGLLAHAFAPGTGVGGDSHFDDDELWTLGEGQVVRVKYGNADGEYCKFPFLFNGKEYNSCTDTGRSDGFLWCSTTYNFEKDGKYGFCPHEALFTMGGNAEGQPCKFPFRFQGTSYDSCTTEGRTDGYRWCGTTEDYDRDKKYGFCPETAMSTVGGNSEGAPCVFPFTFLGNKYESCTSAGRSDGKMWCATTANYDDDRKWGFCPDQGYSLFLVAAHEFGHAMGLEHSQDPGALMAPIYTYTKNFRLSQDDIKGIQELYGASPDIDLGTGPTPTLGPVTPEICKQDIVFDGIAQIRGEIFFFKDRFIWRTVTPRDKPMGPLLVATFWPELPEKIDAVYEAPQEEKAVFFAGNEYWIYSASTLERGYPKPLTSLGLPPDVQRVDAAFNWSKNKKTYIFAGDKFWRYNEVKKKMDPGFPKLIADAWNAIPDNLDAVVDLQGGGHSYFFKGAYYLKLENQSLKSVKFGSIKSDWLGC
Kind of assay: MMP-2 proteolysis of fluorogenic peptide, modulation by α-DG C-term peptide. It counts as biochemical. The settings on record: global fit Eqs 1-3. The method, then:
(§1) Human MMP-2 proenzyme 2 was activated by incubating 0.1 mg/ml progelatinase solution with 0.25 mM aminophenyl mercuric acid (Sigma, St. Louis, MO, USA) at 37°C for 30 minutes. Whereas human recombinant cdMMP-2 human was dissolved in a solution of 50 mM Tris/HCl (pH 7.2), 0.1M NaCl and 10 mMCaCl. […] All measurements were performed at 37°C using a solution of 50 mM Tris–HCl, 0.1 M NaCl, 10 mM CaCl2 and 0.05% Brij 35 buffered at pH 7.3.
(§2) Different concentrations of the α-DG peptide (i.e., final concentration range spanning between 0 μM and 4 μM) were incubated with 0.07 μM active MMP-2 for 30 min at 37°C to allow the interaction to occur. In the case of the cdMMP2 the kinetics were performed employing 0.06 μM cdMMP-2 at different concentration of α-DG (613–651) peptide in the range 0–2 μM. Different concentrations of MCA fluorogenic peptide (i.e: from […]) were then added to this solution. The enzymatic reaction was recorded for 30 minutes at 37°C. The initial velocities were derived from the slopes within the first 15 minutes, which is the time period during which the rate is constant and less than 10% of the substrate was degraded. This ensured a steady-state condition for the first cleavage step, and it was a prerequisite for the subsequent analysis steps.
(§3) This behavior, which envisages the presence of (at least) two binding sites for the α-DG (613–651) peptide on the catalytic domain of MMP-2, can be kinetically and thermodynamically described by the scheme reported on Fig 5; where, ^0kcat and ^0Km are the observed catalytic parameters in the absence of the peptide, Ka and Kb are the peptide dissociation constants to the free enzyme for the two binding sites, α is the interaction parameter, which quantifies the effect on Km of the α-DG(613–651) peptide binding to the first binding site (α > 1 indicates a negative effect with a decreased affinity, α < 1 a positive effect and α = 1 no effect), β is the interaction parameter which estimates the effect on kcat of the binding of α-DG(613–651) peptide to the first binding site (β > 1 indicates a positive effect with an increased rate constant, β < 1 a negative effect and β = 1 no effect).
(§4) Data reported in Figs 4 and 5 have been analyzed according to the following equation: [E0]/v=^obsKm/^obskcat⋅1/[S]+1/^obskcat (Eq 1) where [E0] is the total enzyme concentration, ν is the observed velocity (expressed as mol/s), [S] is the substrate concentration, ^obskcat and ^obsKm are the observed catalytic parameters, namely ^obskcat=^0kcat⋅(Ka⋅α+β⋅[Pept])/(Ka⋅α+[Pept]) (Eq 2) and ^obsKm=^0Km⋅α⋅(Ka⋅Kb+Kb⋅[Pept]+[Pept]^2)/Kb⋅(Ka⋅α+[Pept]) (Eq 3) where ^0kcat and ^0Km are the catalytic paramenters in the absence of peptide and all other symbols have the same meaning as described above.

The target of assay [2] is T2, cdMMP-2 (isolated catalytic domain of MMP-2) (Homo sapiens, UniProt P08253).
T2 construct: the catalytic domain of MMP-2 (without the hemopexin-like domain) retains the capability of degrading; purchased Biomol International
Nature of the assay: cdMMP-2 proteolysis of fluorogenic peptide, modulation by α-DG C-term peptide. It counts as biochemical. The conditions noted are these: pH 7.3, 37°C, global fit Eqs 1-3. The procedure: as §1, §2, §3, §4

Assay [3] addresses human recombinant MMP-2 (whole enzyme, activated) (human).
The target of assay [4] is human recombinant catalytic domain of MMP-2 (cdMMP-2) (human).
Assay [5] concerns the target human recombinant MMP-2 (whole enzyme, activated) (human). Kind of assay: enzyme inhibition kinetics (fluorogenic substrate); peptide (0-4 μM with 0.07 μM active MMP-2; 0-2 μM with 0.06 μM cdMMP-2) incubated with the enzyme 30 min at 37°C, then MCA-Pro-Leu-Gly-Leu-DPA-Ala-Arg-NH2 added; initial velocities, global fit of Lineweaver-Burk data to a scheme with two peptide binding sites (Eqs 1-3); 50 mM Tris-HCl, 0.1 M NaCl, 10 mM CaCl2, 0.05% Brij 35, pH 7.3, 37°C.

The target of assay [6] is human recombinant catalytic domain of MMP-2 (cdMMP-2) (human). The description is as above.

No end group written: not given here.

Regarding “MCA-Pro-Leu-Gly-Leu-DPA-Ala-Arg-NH2 [fluorogenic substrate, reference compound]”, the “^0kcat” value in assay [1] (whole MMP-2, absence of peptide, MCA-Pro-Leu-Gly-Leu-DPA-Ala-Arg-NH2 substrate, pH 7.3, 37°C, 50 mM Tris–HCl, 0.1 M NaCl, 10 mM CaCl2, 0.05% Brij 35, λexc 325 nm, λem 398 nm) worked out at 29.6 ± 4.5 s⁻¹; in assay [2] (cd-MMP-2, absence of peptide) it was 26.1 ± 4.1 s⁻¹. In addition, the “^0Km” value in assay [1] (whole MMP-2, absence of peptide, pH 7.3, 37°C) was 1.5(±0.3)×10^−6 M; in assay [2] (cd-MMP-2, absence of peptide), 1.9(±0.5)×10^−6 M.

As to “VGDPALVLNDIHKKIALVKKLAFAFGDRNCSTITLQNIT [α-DG (613–651) peptide]”, the Kd in assay [1] (whole MMP-2, fluorogenic substrate, peptide 0-4 μM, 30 min preincubation at 37°C, pH 7.3, read-out: Ka (peptide dissociation constant to the free enzyme, first, high affinity non-competitive site)) came out at 35 nM; in assay [2] (cd-MMP-2, fluorogenic substrate, peptide 0–2 μM, read-out: Ka (peptide dissociation constant to the free enzyme, first, high affinity non-competitive site)), 35 nM. Besides, the Kb amounted to 210 nM in assay [1] (whole MMP-2, fluorogenic substrate, peptide 0-4 μM, 30 min preincubation at 37°C, pH 7.3, read-out: Kb (peptide dissociation constant to the free enzyme, second, lower affinity competitive active site)) and 210 nM in assay [2] (cd-MMP-2, fluorogenic substrate, peptide 0–2 μM, read-out: Kb (peptide dissociation constant to the free enzyme, second, lower affinity competitive active site)).

B1: human α-DG (613–651) peptide (peptide)
peptide: VGDPALVLNDIHKKIALVKKLAFAFGDRNCSTITLQNIT
With B1, in assay [3], the interaction parameter α (effect of peptide at the first site on Km of the fluorogenic substrate) was found to be 1.7. The interaction parameter β (effect of peptide at the first site on kcat for the fluorogenic substrate) in assay [3] stood at 0.27; in assay [4], 0.32. Moreover, the Ka (dissociation constant, first site, higher affinity, non-competitive) in assay [5] and in assay [6] was 35 nM throughout. The Kb (dissociation constant, second site, lower affinity, competitive) in assay [5] and in assay [6] was 210 nM throughout.
